Measurements taken from US6277872A, “Oxadiazoles, processes for their preparation and their use as medicaments” (Boehringer Ingelheim KG, priority 1996, dated 2001).

How the values were obtained:
Sigma receptor = Sigma receptor binding study; conditions: test concentration typically 10 μM
Experimental: (§1) The tests were typically carried out at a test concentration of 10 μM.

[1] = tested on: permanent focal cerebral ischaemia (MCAO); test: Stroke model in the rat, permanent focal cerebral ischaemia by occlusion of the arteria cerebri media (MCAO); format: in vivo
From the text: A permanent focal cerebral ischaemia was induced by surgical occlusion of the arteria cerbri media (MCAO) (based on A. Tamura, D. I. Graham, J. McCulloch and G. M. Teasdale, J. Cereb. Blood Flow Metab. 1 (1981) 53-60).

AMPA receptor = test: Inhibition of the cainate-induced signal at the AMPA receptor, electrophysiology on neuronal cells (Patch-Clamp-Method); format: cell-based; conditions: test concentration of 100 μM
Experimental: The tests were carried out at a test concentration of 100 μM.

Histamine H1 receptor = target: T1, Histamine H1 receptor (Cavia porcellus, UniProt P31389); test: Histamine H1 receptor binding study; conditions: test concentration typically 10 μM; read-out: H1 Inh. [%]
T1 construct: from tissue
T1 sequence (P31389 whole entry): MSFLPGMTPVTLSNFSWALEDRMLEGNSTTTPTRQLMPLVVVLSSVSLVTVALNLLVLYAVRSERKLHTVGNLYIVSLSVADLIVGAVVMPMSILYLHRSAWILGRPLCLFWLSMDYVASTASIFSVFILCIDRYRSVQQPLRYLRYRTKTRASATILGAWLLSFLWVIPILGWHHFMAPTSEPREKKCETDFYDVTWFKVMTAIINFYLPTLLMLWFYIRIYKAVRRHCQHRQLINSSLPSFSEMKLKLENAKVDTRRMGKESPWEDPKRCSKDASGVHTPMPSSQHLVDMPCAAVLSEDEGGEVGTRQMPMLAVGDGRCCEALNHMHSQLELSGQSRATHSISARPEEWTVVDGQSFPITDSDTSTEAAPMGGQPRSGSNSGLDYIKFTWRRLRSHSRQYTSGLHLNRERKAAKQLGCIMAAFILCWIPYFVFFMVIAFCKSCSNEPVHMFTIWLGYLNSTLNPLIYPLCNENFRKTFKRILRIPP
From the text: Table 5 summarises the inhibitory values on the above receptors:

[2] = tested on: "Na+ channel site 2"-binding site; test: Binding to the Na+ channel site 2 binding site ([3H]-BTX); conditions: test concentration typically 10 μM
Experimental: as §1

| SMILES | Sigma Inh. [%] (Sigma receptor) | inhibition at 10 µM (Histamine H1 receptor) [%] | Na+-channel Inh. [%] ([3H]-BTX) [2] | volume of the lesion [1] | AMPA Inh. [%] (inhibiting the cainate-induced signal at the AMPA receptor) (AMPA receptor) |
| --- | --- | --- | --- | --- | --- |
| CN(C)CCOc1ccccc1-c1nc(-c2ccco2)no1 [Example 57, 5-{2-[2-(N,N-Dimethylamino)-ethyl]oxy-phenyl}-3-(2-furyl)-1,2,4-oxadiazole] | 49 | 90 | 54 | – | 51 |
| CN(C)CCOc1ccccc1-c1nc(-c2ccccc2Br)no1 [Example 64, 5-{2-[2-(N,N-Dimethylamino)-ethyl]oxy-phenyl}-3-(2-bromo-phenyl)-1,2,4-oxadiazole] | 76 | 88 | 99 | – | 65 |
| Cc1cccc(-c2nc(-c3ccccc3)no2)c1OCCN(C)C [Example 68, 5-{2-[2-(N,N-Dimethylamino)-ethyl]oxy-3-methyl-phenyl}-3-phenyl-1,2,4-oxadiazole] | 79 | 74 | 100 | – | 81 |

Continued, in another order:

| Sigma Inh. [%] (Sigma receptor) | inhibition at 10 µM (Histamine H1 receptor) [%] | Na+-channel Inh. [%] ([3H]-BTX) [2] | SMILES | volume of the lesion [1] | AMPA Inh. [%] (inhibiting the cainate-induced signal at the AMPA receptor) (AMPA receptor) |
| --- | --- | --- | --- | --- | --- |
| 62 | 99 | 86 | CN(C)CCOc1ccccc1-c1nc(-c2ccccc2)no1 [Example 2, 5-{2-[2-(N,N-dimethylamino)ethyl]oxy-phenyl}-3-phenyl-1,2,4-oxadiazole] | reduce the volume of the lesion significantly | 86 |
| 74 | 78 | 85 | CN(C)CCOc1ccccc1-c1nc(-c2cccc(Br)c2)no1 [Example 48, 5-{2-[2-(N,N-Dimethylamino)-ethyl]oxy-phenyl}-3-(3-bromophenyl)-1,2,4-oxadiazole] | – | 85 |
| 82 | 84 | 70 | CN(C)CCOc1ccccc1-c1nc(-c2cccc(Cl)c2)no1 [Example 59, 5-{2-[2-(N,N-Dimethylamino)-ethyl]oxy-phenyl}-3-(3-chlorophenyl)-1,2,4-oxadiazole] | – | 54 |
| 54 | 90 | 92 | Cc1ccc(-c2nc(-c3ccccc3)no2)c(OCCN(C)C)c1 [Example 67, 5-{2-[2-(N,N-Dimethylamino)-ethyl]oxy4-methyl-phenyl}-3-phenyl-1,2,4-oxadiazole] | – | 28 |
